ChEMBL document CHEMBL1255536, “Synthesis of aminoquinazoline derivatives and their antiproliferative activities against melanoma cell line” (Bioorg Med Chem Lett, 2010)

Legend:
[1] = Cytotoxicity against human A375P cells after 24 hrs by MTT assay; assay type: functional, cell-based
[2] = biological target: Serine/threonine-protein kinase B-raf (Homo sapiens, UniProt P15056, V600E); assay: Inhibition of b-Raf V600E mutant
HS27 = assay: Cytotoxicity against human HS27 cells after 24 hrs by MTT assay; assay type: cell-based; details: HS27, 24 h
[3] = biological target: RAF proto-oncogene serine/threonine-protein kinase (Homo sapiens, UniProt P04049); assay: Inhibition of c-Raf
Sequence of RAF proto-oncogene serine/threonine-protein kinase (P04049 whole entry): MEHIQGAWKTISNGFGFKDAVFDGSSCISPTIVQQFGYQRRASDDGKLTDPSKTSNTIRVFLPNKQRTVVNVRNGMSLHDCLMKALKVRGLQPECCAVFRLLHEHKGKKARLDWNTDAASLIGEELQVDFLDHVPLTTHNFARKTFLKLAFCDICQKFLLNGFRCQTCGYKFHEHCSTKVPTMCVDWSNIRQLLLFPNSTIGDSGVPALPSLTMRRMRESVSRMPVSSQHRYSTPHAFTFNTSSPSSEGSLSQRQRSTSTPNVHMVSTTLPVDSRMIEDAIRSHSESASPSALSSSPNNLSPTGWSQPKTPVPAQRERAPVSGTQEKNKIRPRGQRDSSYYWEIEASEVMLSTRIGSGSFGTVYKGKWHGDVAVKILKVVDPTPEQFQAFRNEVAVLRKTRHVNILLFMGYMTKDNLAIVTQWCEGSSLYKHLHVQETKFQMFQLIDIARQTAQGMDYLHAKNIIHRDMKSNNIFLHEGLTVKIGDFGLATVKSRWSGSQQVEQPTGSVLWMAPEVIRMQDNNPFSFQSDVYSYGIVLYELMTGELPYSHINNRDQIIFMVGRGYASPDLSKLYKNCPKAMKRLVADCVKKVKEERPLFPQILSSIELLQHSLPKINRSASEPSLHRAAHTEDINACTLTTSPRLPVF

[4] = Cytotoxicity against human A375P cells at 100 uM after 24 hrs by MTT assay; assay type: functional, cell-based

Sequence of Serine/threonine-protein kinase B-raf (P15056 2-766 V600E limits assumed): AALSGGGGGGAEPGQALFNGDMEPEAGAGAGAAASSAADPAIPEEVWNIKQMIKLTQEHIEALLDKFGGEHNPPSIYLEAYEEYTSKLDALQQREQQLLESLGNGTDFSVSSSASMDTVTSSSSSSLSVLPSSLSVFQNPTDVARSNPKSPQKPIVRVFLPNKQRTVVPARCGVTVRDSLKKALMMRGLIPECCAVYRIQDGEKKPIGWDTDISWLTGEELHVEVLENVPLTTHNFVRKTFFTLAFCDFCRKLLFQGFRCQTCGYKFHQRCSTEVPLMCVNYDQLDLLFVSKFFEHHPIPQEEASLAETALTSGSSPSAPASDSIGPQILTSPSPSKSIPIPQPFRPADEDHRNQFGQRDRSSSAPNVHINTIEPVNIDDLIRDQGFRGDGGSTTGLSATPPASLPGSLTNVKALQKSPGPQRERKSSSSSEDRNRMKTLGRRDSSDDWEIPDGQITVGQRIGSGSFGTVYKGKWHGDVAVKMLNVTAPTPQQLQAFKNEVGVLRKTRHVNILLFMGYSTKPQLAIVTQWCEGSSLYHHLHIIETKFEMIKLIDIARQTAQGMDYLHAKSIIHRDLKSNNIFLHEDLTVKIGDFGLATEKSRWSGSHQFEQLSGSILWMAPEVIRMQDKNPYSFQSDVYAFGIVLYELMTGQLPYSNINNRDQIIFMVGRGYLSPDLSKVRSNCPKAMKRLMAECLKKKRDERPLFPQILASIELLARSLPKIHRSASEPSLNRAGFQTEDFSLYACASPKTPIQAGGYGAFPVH

| SMILES | IC50 [1] [nM] | IC50 [4] | further results |
| --- | --- | --- | --- |
| CNc1ncnc2c(CNc3cc(NC(=O)c4ccc(Br)s4)ccc3C)cccc12 | 10500 |  |  |
| CNc1ncnc2c(CNc3cc(NC(=O)c4cc(=O)c5ccccc5o4)ccc3C)cccc12 | 6 |  | IC50 [2]: 19500 nM; IC50 (HS27): 230 nM; IC50 [3]: 765 nM |
| CNc1ncnc2c(CNc3cc(NC(=O)c4ccc(N)c(C(F)(F)F)c4)ccc3C)cccc12 |  | Not Active |  |
| CNc1ncnc2c(CNc3cc(NC(=O)c4ccnnc4)ccc3C)cccc12 | 61700 |  |  |
| CNc1ncnc2c(CNc3cc(NC(=O)c4ccc(-c5ccc(OC)cc5)o4)ccc3C)cccc12 |  | Not Active |  |
| CNc1ncnc2c(CNc3cc(NC(=O)c4ccncc4Cl)ccc3C)cccc12 |  | Not Active |  |
| CNc1ncnc2c(CNc3cc(NC(=O)c4ccc(Cl)c(-n5cnc(C)c5)c4)ccc3C)cccc12 |  | Not Active |  |
| CNc1ncnc2c(CNc3cc(NC(=O)c4cccc(C(F)(F)F)c4)ccc3C)cccc12 | 433 |  |  |
| CNc1ncnc2c(CNc3cc(NC(=O)c4cc5ccccc5s4)ccc3C)cccc12 |  | Not Active |  |
| CNc1ncnc2c(CNc3cc(NC(=O)c4ccc(Cl)c(C(F)(F)F)c4)ccc3C)cccc12 | 9700 |  |  |
| CNc1ncnc2c(CNc3cc(NC(=O)c4cc(C)on4)ccc3C)cccc12 | 1200 |  |  |
| CNc1ncnc2c(CNc3cc(NC(=O)c4cc(C(F)(F)F)cc(C(F)(F)F)c4)ccc3C)cccc12 | 769 |  |  |
| CNc1ncnc2c(CNc3cc(NC(=O)c4cscn4)ccc3C)cccc12 | 1900 |  |  |
| CNc1ncnc2c(CNc3cc(NC(=O)c4ccc5c(c4)OCCO5)ccc3C)cccc12 | 137 |  | IC50 (HS27): 1200 nM |
| CNc1ncnc2c(CNc3cc(NC(=O)c4cnccn4)ccc3C)cccc12 |  | Not Active |  |
| CNc1ncnc2c(CNc3cc(NC(=O)c4ccc(OC)c5ccc(OC)cc45)ccc3C)cccc12 |  | Not Active |  |
| CNc1ncnc2c(CNc3cc(NC(=O)c4cc(C)oc4C)ccc3C)cccc12 |  | Not Active |  |
| CNc1ncnc2c(CNc3cc(NC(=O)c4ccc(-c5cc(C(F)(F)F)ccc5Cl)o4)ccc3C)cccc12 | 14900 |  |  |
| CNC(=O)c1cc(Oc2ccc(NC(=O)Nc3ccc(Cl)c(C(F)(F)F)c3)cc2)ccn1 [SORAFENIB] | 5580 |  |  |
